Residues, ends and D or L forms follow the SMILES beside them.
Tests used:
[1] = target: T1, Substance-K receptor (Homo sapiens) (UniProt P21452); test: Displacement of [125I]-NKA from NK2R (unknown origin) transfected in CHO cells at 10 uM by gamma counting analysis; format: cell-based
T1 sequence (whole entry): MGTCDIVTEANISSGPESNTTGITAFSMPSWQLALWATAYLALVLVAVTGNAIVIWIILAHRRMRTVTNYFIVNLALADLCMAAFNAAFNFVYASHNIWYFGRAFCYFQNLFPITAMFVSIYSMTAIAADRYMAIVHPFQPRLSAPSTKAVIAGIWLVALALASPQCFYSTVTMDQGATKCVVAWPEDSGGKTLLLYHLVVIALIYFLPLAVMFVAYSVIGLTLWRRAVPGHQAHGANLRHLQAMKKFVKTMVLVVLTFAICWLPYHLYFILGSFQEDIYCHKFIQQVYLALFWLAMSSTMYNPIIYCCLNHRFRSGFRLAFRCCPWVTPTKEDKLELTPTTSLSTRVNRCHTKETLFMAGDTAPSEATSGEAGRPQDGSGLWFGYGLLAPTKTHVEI

Neuromedin-K receptor [2] = target: T2, Neuromedin-K receptor (Homo sapiens, UniProt P29371); test: Displacement of ([125I]-His3, MePhe7)-NKB from NK3R (unknown origin) transfected in CHO cells by gamma counting analysis; format: cell-based
T2 sequence (P29371 whole entry): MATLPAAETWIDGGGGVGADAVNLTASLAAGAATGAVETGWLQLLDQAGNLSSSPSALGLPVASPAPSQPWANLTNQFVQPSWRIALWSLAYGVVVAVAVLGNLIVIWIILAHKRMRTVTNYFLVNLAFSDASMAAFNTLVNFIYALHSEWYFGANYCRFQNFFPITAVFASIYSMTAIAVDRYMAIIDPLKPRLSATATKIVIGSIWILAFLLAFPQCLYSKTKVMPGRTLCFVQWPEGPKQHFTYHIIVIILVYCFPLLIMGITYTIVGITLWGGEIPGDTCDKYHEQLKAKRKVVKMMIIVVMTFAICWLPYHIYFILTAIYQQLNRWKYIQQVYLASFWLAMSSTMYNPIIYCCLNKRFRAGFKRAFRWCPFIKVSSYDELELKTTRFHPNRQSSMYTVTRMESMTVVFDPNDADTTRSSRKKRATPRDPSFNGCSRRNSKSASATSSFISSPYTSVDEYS

Neuromedin-K receptor [3] = target: T2, Neuromedin-K receptor; test: Agonist activity at NK3R (unknown origin) transfected in CHO cells assessed as calcium influx […]; format: functional, cell-based
[4] = target: Substance-P receptor (Homo sapiens) (UniProt P25103); test: Displacement of [125I]-BH-SP from NK1R (unknown origin) transfected in CHO cells at 10 uM by gamma counting analysis; format: cell-based
Substance-P receptor (Homo sapiens), sequence (P25103 whole entry): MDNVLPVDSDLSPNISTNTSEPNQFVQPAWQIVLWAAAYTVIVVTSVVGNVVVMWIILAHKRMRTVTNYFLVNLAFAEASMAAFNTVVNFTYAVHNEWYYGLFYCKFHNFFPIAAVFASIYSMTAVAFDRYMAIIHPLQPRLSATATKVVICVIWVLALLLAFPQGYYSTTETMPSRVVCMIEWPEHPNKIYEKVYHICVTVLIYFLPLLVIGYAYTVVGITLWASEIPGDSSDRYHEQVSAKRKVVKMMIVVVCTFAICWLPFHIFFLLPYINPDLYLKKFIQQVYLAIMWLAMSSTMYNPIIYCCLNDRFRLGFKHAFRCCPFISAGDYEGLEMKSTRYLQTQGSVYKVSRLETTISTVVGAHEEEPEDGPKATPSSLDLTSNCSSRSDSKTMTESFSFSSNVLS

Compound	inhibition [1]	IC50 (Neuromedin-K receptor [2])	EC50 (Neuromedin-K receptor [3])	inhibition [4]
CSCC[C@H](NC(=O)[C@H](CC(C)C)NC(=O)CNC(=O)[C@H](Cc1ccccc1)N(C)C(=O)[C@H](Cc1ccccc1)NC(=O)[C@H](CC(=O)O)NC(=O)[C@H](CC(N)=O)NC(=O)[C@@H]1CCCN1C(=O)[C@H](CC(=O)O)NC(=O)[C@H](C)NC(=O)[C@@H]1CCC(=O)N1)C(N)=O (HELM PEPTIDE1{[Glp].A.D.P.N.D.F.[meF].G.L.M.[am]}$$$$V2.0)	< 10%	54 nM	0.15 nM	87%
CSCC[C@H](NC(=O)[C@H](CC(C)C)NC(=O)CNC(=O)[C@H](Cc1ccccc1)N(C)C(=O)[C@H](Cc1ccccc1)NC(=O)[C@H](C)NC(=O)[C@H](CC(=O)O)NC(=O)[C@H](Cc1cnc[nH]1)NC(=O)[C@H](CCSC)NC(=O)[C@@H](N)CC(=O)O)C(N)=O (HELM PEPTIDE1{D.M.H.D.A.F.[meF].G.L.M.[am]}$$$$V2.0)	33%	4.4 nM	0.012 nM	< 10%
CSCC[C@H](NC(=O)[C@H](CC(C)C)NC(=O)CNC(=O)[C@@H](NC(=O)[C@H](Cc1ccccc1)NC(=O)[C@H](CCC(N)=O)NC(=O)[C@H](CC(=O)O)NC(=O)[C@H](CO)NC(=O)[C@H](CCCCN)NC(=O)[C@@H]1CCCN1C(=O)[C@@H](NC(=O)[C@@H](N)CC(=O)O)C(C)C)C(C)C)C(N)=O [KASSININ]		100 nM	0.21 nM	
H-DTGDKFYGLM-NH2 [SIALOKININ II]	98%	1930 nM	10.9 nM	99%
CSCC[C@H](NC(=O)[C@H](CC(C)C)NC(=O)CNC(=O)[C@H](Cc1ccccc1)N(C)C(=O)[C@H](Cc1ccccc1)NC(=O)[C@H](Cc1ccccc1)NC(=O)[C@H](CC(=O)O)NC(=O)[C@H](Cc1cnc[nH]1)NC(=O)[C@H](CCSC)NC(=O)[C@@H](N)CC(=O)O)C(N)=O (HELM PEPTIDE1{D.M.H.D.F.F.[meF].G.L.M.[am]}$$$$V2.0)	57%	3 nM	0.013 nM	< 10%
CSCC[C@H](NC(=O)[C@H](CC(C)C)NC(=O)CNC(=O)[C@H](Cc1ccccc1)N(C)C(=O)[C@H](Cc1ccccc1)NC(=O)[C@H](CC(=O)O)NC(=O)[C@H](CC(=O)O)NC(=O)[C@H](Cc1cnc[nH]1)NC(=O)[C@H](CCSC)NC(=O)[C@@H](N)CC(=O)O)C(N)=O (HELM PEPTIDE1{D.M.H.D.D.F.[meF].G.L.M.[am]}$$$$V2.0)	< 10%	38 nM	0.04 nM	< 10%
CSCC[C@H](NC(=O)[C@H](CC(C)C)NC(=O)CNC(=O)[C@H](Cc1ccccc1)N(C)C(=O)[C@H](Cc1ccccc1)NC(=O)[C@H](CC(=O)O)NC(=O)[C@H](CC(=O)O)NC(=O)[C@@H]1CCCN1C(=O)[C@H](CCCNC(=N)N)NC(=O)[C@@H]1CCCN1C(=O)[C@@H](N)CCCCN)C(N)=O (HELM PEPTIDE1{K.P.R.P.D.D.F.[meF].G.L.M.[am]}$$$$V2.0)	< 10%			26%
CC[C@H](C)[C@H](NC(=O)[C@H](CC(=O)O)NC(=O)[C@H](Cc1cnc[nH]1)NC(=O)[C@H](CCSC)NC(=O)[C@@H](N)CC(=O)O)C(=O)N[C@@H](Cc1ccccc1)C(=O)N(C)[C@@H](Cc1ccccc1)C(=O)NCC(=O)N[C@@H](CC(C)C)C(=O)N[C@@H](CCSC)C(N)=O (HELM PEPTIDE1{D.M.H.D.I.F.[meF].G.L.M.[am]}$$$$V2.0)	35%	4 nM	0.06 nM	< 10%
CSCC[C@H](NC(=O)[C@H](CC(C)C)NC(=O)CNC(=O)[C@H](Cc1ccccc1)N(C)C(=O)[C@H](Cc1ccccc1)NC(=O)[C@H](CCCN=C(N)N)NC(=O)[C@H](CC(=O)O)NC(=O)[C@H](Cc1cnc[nH]1)NC(=O)[C@H](CCSC)NC(=O)[C@@H](N)CC(=O)O)C(N)=O (HELM PEPTIDE1{D.M.H.D.R.F.[meF].G.L.M.[am]}$$$$V2.0)		2.5 nM	0.08 nM	
CSCC[C@H](NC(=O)[C@H](CC(C)C)NC(=O)CNC(=O)[C@H](Cc1ccccc1)N(C)C(=O)[C@H](Cc1ccccc1)NC(=O)[C@@H]1CCCN1C(=O)[C@H](CC(=O)O)NC(=O)[C@H](Cc1cnc[nH]1)NC(=O)[C@H](CCSC)NC(=O)[C@@H](N)CC(=O)O)C(N)=O (HELM PEPTIDE1{D.M.H.D.P.F.[meF].G.L.M.[am]}$$$$V2.0)	38%	45 nM	0.041 nM	< 10%
CSCC[C@H](NC(=O)[C@H](CC(C)C)NC(=O)CNC(=O)[C@H](Cc1ccccc1)N(C)C(=O)[C@H](Cc1ccccc1)NC(=O)[C@H](Cc1c[nH]c2ccccc12)NC(=O)[C@H](CC(=O)O)NC(=O)[C@H](Cc1cnc[nH]1)NC(=O)[C@H](CCSC)NC(=O)[C@@H](N)CC(=O)O)C(N)=O (HELM PEPTIDE1{D.M.H.D.W.F.[meF].G.L.M.[am]}$$$$V2.0)	79%	1.8 nM	0.28 nM	< 10%
CSCC[C@H](NC(=O)[C@H](CC(C)C)NC(=O)CNC(=O)[C@H](Cc1ccccc1)N(C)C(=O)[C@H](Cc1ccccc1)NC(=O)[C@H](CCCCN)NC(=O)[C@H](CC(=O)O)NC(=O)[C@H](Cc1cnc[nH]1)NC(=O)[C@H](CCSC)NC(=O)[C@@H](N)CC(=O)O)C(N)=O (HELM PEPTIDE1{D.M.H.D.K.F.[meF].G.L.M.[am]}$$$$V2.0)	35%	11 nM	0.026 nM	40%
CSCC[C@H](NC(=O)[C@H](CC(C)C)NC(=O)CNC(=O)[C@H](Cc1ccccc1)N(C)C(=O)[C@H](Cc1ccccc1)NC(=O)[C@H](Cc1cnc[nH]1)NC(=O)[C@H](CC(=O)O)NC(=O)[C@H](Cc1cnc[nH]1)NC(=O)[C@H](CCSC)NC(=O)[C@@H](N)CC(=O)O)C(N)=O (HELM PEPTIDE1{D.M.H.D.H.F.[meF].G.L.M.[am]}$$$$V2.0)	47%	5.9 nM	0.017 nM	< 10%
CSCC[C@H](NC(=O)[C@H](CC(C)C)NC(=O)CNC(=O)[C@H](Cc1ccccc1)N(C)C(=O)[C@H](Cc1ccccc1)NC(=O)[C@H](CO)NC(=O)[C@H](CC(=O)O)NC(=O)[C@H](Cc1cnc[nH]1)NC(=O)[C@H](CCSC)NC(=O)[C@@H](N)CC(=O)O)C(N)=O (HELM PEPTIDE1{D.M.H.D.S.F.[meF].G.L.M.[am]}$$$$V2.0)	31%	3.6 nM	0.04 nM	< 10%
CSCC[C@H](NC(=O)[C@H](CC(C)C)NC(=O)CNC(=O)[C@H](Cc1ccccc1)N(C)C(=O)[C@H](Cc1ccccc1)NC(=O)[C@H](CCCNC(=N)N)NC(=O)[C@H](CC(=O)O)NC(=O)[C@H](Cc1cnc[nH]1)NC(=O)[C@H](CCSC)NC(=O)[C@@H](N)CC(=O)O)C(N)=O (HELM PEPTIDE1{D.M.H.D.R.F.[meF].G.L.M.[am]}$$$$V2.0)	62%			60%
CSCC[C@H](NC(=O)[C@H](CC(C)C)NC(=O)CNC(=O)[C@H](Cc1ccccc1)N(C)C(=O)[C@H](Cc1ccccc1)NC(=O)[C@H](CCC(=O)O)NC(=O)[C@H](CC(=O)O)NC(=O)[C@H](Cc1cnc[nH]1)NC(=O)[C@H](CCSC)NC(=O)[C@@H](N)CC(=O)O)C(N)=O (HELM PEPTIDE1{D.M.H.D.E.F.[meF].G.L.M.[am]}$$$$V2.0)	< 10%	7.5 nM	0.024 nM	< 10%
H-KPRPDQFYGLM-NH2	95%			101%
CSCC[C@H](NC(=O)[C@H](CC(C)C)NC(=O)CNC(=O)[C@H](Cc1ccccc1)N(C)C(=O)[C@H](Cc1ccccc1)NC(=O)[C@H](CC(=O)O)NC(=O)[C@H](CC(=O)O)NC(=O)[C@@H]1CCCN1C(=O)[C@H](CCCN=C(N)N)NC(=O)[C@@H]1CCCN1C(=O)[C@@H](N)CCCCN)C(N)=O (HELM PEPTIDE1{K.P.R.P.D.D.F.[meF].G.L.M.[am]}$$$$V2.0)		31 nM	5.04 nM	
CC[C@H](C)[C@H](NC(=O)[C@H](Cc1ccccc1)NC(=O)[C@H](C)NC(=O)[C@H](CC(=O)O)NC(=O)[C@H](CCCCN)NC(=O)[C@H](CO)NC(=O)[C@@H]1CCCN1C(=O)[C@@H]1CCC(=O)N1)C(=O)NCC(=O)N[C@@H](CC(C)C)C(=O)N[C@@H](CCSC)C(N)=O [ELEDOISIN] (HELM PEPTIDE1{[Glp].P.S.K.D.A.F.I.G.L.M.[am]}$$$$V2.0)	95%	96 nM		100%
H-KPRPDQFYGLM-NH2 [BUFOKININ]		2990 nM	10.7 nM	
CSCC[C@H](NC(=O)[C@H](CC(C)C)NC(=O)CNC(=O)[C@H](Cc1ccc(O)cc1)NC(=O)[C@H](Cc1ccccc1)NC(=O)[C@H](CCCCN)NC(=O)[C@H](CC(N)=O)NC(=O)[C@@H]1CCCN1C(=O)[C@H](CC(=O)O)NC(=O)[C@H](C)NC(=O)[C@@H]1CCC(=O)N1)C(N)=O [PHYSALAEMIN]		1550 nM	3.36 nM	

— ChEMBL document CHEMBL2346651, “Structure-activity relationship study of tachykinin peptides for the development of novel neurokinin-3 receptor selective agonists” (Bioorg Med Chem, 2013)
